The nature of data set [1]: Pharmacokinetics of the compounds in SD rats (Example 36). In kind it is in vivo. Conditions: SD rat plasma. The procedure: Preparation of compound stock solution: An appropriate amount of compound solid powder was be weighed and added in a certain amount of DMSO, and vortex ultrasound to obtain a 10 mg/mL stock solution.
Preparation of test compound for gavage: respectively taking an appropriate amount of the compound stock solution, adding a certain amount of Solutol HS15 solution, vortexing for 1 minute, then adding a certain amount of physiological saline, and fully mixing to obtain a 1 mg/mL solution.
Preparation of test compound for intravenous injection: respectively taking an appropriate amount of the compound stock solution, adding a certain amount of Solutol HS15 solution, vortexing for 1 minute, then adding a certain amount of physiological saline, and fully mixing until uniform, so as to obtain a 0.5 mg/mL solution.
The experimental animals were fasted overnight before gavage administration, and were given food 4 hours after administration, with free access to water. Each test compound was divided into two groups, namely intravenous administration group and oral administration group.
Blood samples (150 μL/sample) were collected from the jugular vein of SD rats before administration and at 5 min (only intravenous administration group), 15 min, 30 min, 1 h, 2 h, 4 h, 8 h and 24 h after administration, respectively. The samples were placed in centrifuge tubes containing anticoagulant sodium heparin and centrifuged at 4° C., 2000 g for 5 minutes to separate plasma. The plasma samples were analyzed by LC/MS/MS to detect the concentration of each test compound.
Non-compartmental model-related parameters were calculated by WinNonlin® Professional software.

For data set [2], the system named is potassium oxonate-induced hyperuricemic rats. The experiment in a line: Serum uric acid in potassium oxonate-induced hyperuricemic rats, 3 days of gavage (Example 35). It is filed as in vivo, SD rats. Particulars: for serum uric acid level compared with the model group at the same time point: 2 mg/kg for 3 days; for Uric acid 0 h / Uric acid 1 h / Uric acid 3 h / Uric acid 5 h: serum, 2 mg/kg gavage for 3 days, mean ± SD; for Uric acid 0 h: day 3, 0 h, before potassium oxonate injection, n=6; for Uric acid 1 h: day 3, 1 h after potassium oxonate injection; for Uric acid 3 h: day 3, 3 h after potassium oxonate injection; for Uric acid 5 h: day 3, 5 h after potassium oxonate injection. The procedure:
Compound 13 was a light yellow powder, and compounds 38 and 41 are pseudo-white powders, which are triturated with 0.5% CMC-Na just prior to use to prepare a 0.4 mg/mL suspension for gavage.
36 male SD rats weighed approximately 220-240 g after one week of adaptation. […] The drugs in each group were prepared into a corresponding concentration suspension, and the administration volume was 0.5 mL/100 g.
After the rats in each group were purchased and adapted to feeding, they were fasted for 12 h, and, intraperitoneally, injected with⋅ potassium⋅ gxonate at a⋅dose of 300 mg/kg to establish the model. 0.5 h after modeling, each test drug group was gavaged once. The drug was administered continuously for 3 days. On day 3, blood samples was collected from the retro-orbital venous plexus before and 1, 3, and 5 h after potassium oxonate injection. The samples were centrifuged at 3500 rpm for 10 min, and 30 μL of serum was collected to determine the uric acid level at each time point.
The measurement data of each test were expressed as (mean)±standard deviation). The comparison between groups used ANOVA-Dunnett T test to examine the significance. P<0.05 was used as the significance index, and P<0.01 was used as the extremely significant index.

Where [3] appears, read: Intravenous injection administration - 1 mg/kg.
[4] abbreviates: po, Gavage administration - 10 mg/kg.
[5] abbreviates: 1, 3, and 5 h after modeling, P<0.01 or P<0.05.

The structures appear in SMILES notation. Where a name gives a salt, the structure may show the parent alone.

The values that follow come from patent US20250282753A1, “COMPOUNDS USEFUL FOR REDUCING URIC ACID” (ATOM BIOSCIENCE AMERICA CORPORATION, priority 2022, published 2025).

Broadly, the AUC(0-inf) is total exposure, with the tail of the curve extrapolated. The low end stands for less exposure, the high end for more exposure. By Cmax is commonly meant the maximum level reached in the sampled fluid or tissue. For orientation: MRT inf means a mean duration of stay, worked out from the concentration-time curve. A word on the Tmax: it is the time at which the peak concentration occurs. What is called half-life is the time needed for the level to fall by half in the phase considered. With `CCOC(=O)c1cnn(-c2ccc3c(c2)c(C#N)nn3C(C)C)c1` [Compound 2, ethyl 1-(3-cyano-1-isopropyl-1H-indazol-5-yl)-1H-pyrazole-4-carboxylate], in data set [1] (setting [3]), the area under the curve AUC(0-inf) is 1400 ng·h/mL, the Cmax amounted to 843 ng/mL, the mean residence time (MRT inf) came to 5.05 h and the time of peak concentration (Tmax) was determined as 0.139 h. In data set [1] (setting [3]), this compound had a half-life of 6.12 h. For the same compound, in data set [1] (setting [4]), the AUC(0-inf) was 30100 ng·h/mL, the peak level (Cmax) was 4780 ng/mL, the MRT inf is 4.78 h and the time of peak concentration (Tmax) was determined as 0.667 h. The half-life in data set [1] (setting [4]) was 2.91 h.
With `COC(=O)c1cnn(-c2ccc3c(c2)c(C#N)nn3C(C)C)c1` [Compound 5, methyl 1-(3-cyano-1-isopropyl-1H-indazol-5-yl)-1H-pyrazole-4-carboxylate], in data set [1] (setting [3]), the area under the curve AUC(0-inf) is 1490 ng·h/mL, the Cmax amounted to 554 ng/mL, the MRT inf was found to be 8.38 h and the Tmax turned out to be 0.25 h. This compound also gave a half-life in data set [1] (setting [3]) of 7.45 h. For the same compound, in data set [1] (setting [4]), the area under the curve AUC(0-inf) amounted to 25100 ng·h/mL, the highest level (Cmax) was 6750 ng/mL, the MRT inf was 3.17 h and the Tmax amounted to 1.17 h. This compound gave a half-life in data set [1] (setting [4]) of 3.78 h.
With `CC(C)OC(=O)c1cnn(-c2ccc3c(c2)c(C#N)nn3C(C)C)c1` [Compound 7, isopropyl 1-(3-cyano-1-isopropyl-1H-indazol-5-yl)-1H-pyrazole-4-carboxylate], in data set [1] (setting [3]), the AUC(0-inf) is 674 ng·h/mL, the highest concentration (Cmax) is 338 ng/mL, the mean residence time MRT inf came out at 7.65 h and the Tmax amounted to 0.194 h. In data set [1] (setting [3]), the half-life is 8.6 h. Further, in data set [1] (setting [4]), the AUC(0-inf) amounted to 12900 ng·h/mL, the highest level (Cmax) was 2920 ng/mL, the MRT inf was 3.84 h and the time of peak concentration (Tmax) came to 0.5 h. Moreover, the half-life in data set [1] (setting [4]) is 3.27 h.
With `CC(C)=CCC/C(C)=C/CC/C(C)=C/COC(=O)c1cnn(-c2ccc3c(c2)c(C#N)nn3C(C)C)c1` [Compound 13, (3,7,11-trimethyldodecyl-2,6,10-trien-1-yl) 1-(3-cyano-1-isopropyl-1H-indazol-5-yl)-1H-pyrazole-4-carboxylate], in data set [2] (setting [5]), the “serum uric acid level compared with the model group at the same time point” value was “significantly reduce”. Moreover, in data set [2], the “Uric acid 0 h” value was 40.7 ± 4.4 µmol/L, the “Uric acid 1 h” value is 42.1 ± 10.6 µmol/L, the “Uric acid 3 h” value is 66.0 ± 10.7 µmol/L and the “Uric acid 5 h” value amounted to 75.0 ± 7.1 µmol/L.
As to `COC(=O)c1ccnc(-c2ccc3c(c2)c(C#N)nn3C(C)C)c1` [Compound 19, methyl 2-(3-cyano-1-isopropyl-1H-indazol-5-yl) isonicotinate], in data set [1] (setting [3]), the total exposure AUC(0-inf) worked out at 776 ng·h/mL, the concentration peaked (Cmax) at 518 ng/mL, the mean residence time (MRT inf) amounted to 6.46 h and the time to peak (Tmax) turned out to be 0.25 h. Further, in data set [1] (setting [3]), the half-life is 8.78 h. Moreover, in data set [1] (setting [4]), the AUC(0-inf) is 25300 ng·h/mL, the highest level (Cmax) was 6170 ng/mL, the MRT inf was 2.86 h and the time of peak concentration (Tmax) came to 0.667 h. Besides, in data set [1] (setting [4]), the half-life is 2.33 h.
As to `CCOC(=O)OC(C)OC(=O)c1ccnc(-c2ccc3c(c2)c(C#N)nn3C(C)C)c1` (stereo not drawn) [Compound 26, ethyl {1-[(ethoxycarbonyl)oxy]} 2-(3-cyano-1-isopropyl-1H-indazol-5-yl) isonicotinate], in data set [1] (setting [3]), the AUC(0-inf) came to 1290 ng·h/mL, the Cmax came out at 1970 ng/mL, the MRT inf worked out at 2.47 h and the Tmax came out at 0.083 h. In data set [1] (setting [3]), this compound had a half-life of 7.11 h. In data set [1] (setting [4]), the AUC(0-inf) stood at 31000 ng·h/mL, the peak concentration (Cmax) is 5520 ng/mL, the mean residence time MRT inf was 3.57 h and the Tmax was found to be 0.917 h. The half-life in data set [1] (setting [4]) is 2.52 h.
For the compound `CC(=O)OCCOC(=O)c1ccnc(-c2ccc3c(c2)c(C#N)nn3C(C)C)c1` [Compound 28, (2-acetoxy)ethyl 2-(3-cyano-1-isopropyl-1H-indazol-5-yl) isonicotinate], in data set [1] (setting [3]), the AUC(0-inf) came to 947 ng·h/mL, the maximum concentration (Cmax) was determined as 712 ng/mL, the MRT inf is 4.31 h and the time of peak concentration (Tmax) is 0.083 h. This compound showed a half-life in data set [1] (setting [3]) of 8.21 h. In addition, in data set [1] (setting [4]), the area under the curve AUC(0-inf) was determined as 15800 ng·h/mL, the Cmax was found to be 3150 ng/mL, the mean residence time MRT inf was 3.55 h and the Tmax amounted to 2.17 h. The half-life in data set [1] (setting [4]) is 2.93 h.
With `COCCOC(=O)c1ccnc(-c2ccc3c(c2)c(C#N)nn3C(C)C)c1` [Compound 31, (2-methoxy)ethyl 2-(3-cyano-1-isopropyl-1H-indazol-5-yl) isonicotinate hydrobromide], in data set [1] (setting [3]), the area under the curve AUC(0-inf) stood at 1010 ng·h/mL, the maximum concentration (Cmax) is 904 ng/mL, the MRT inf came to 4.75 h and the time of peak concentration (Tmax) was 0.083 h. Moreover, the half-life in data set [1] (setting [3]) was 9.03 h. Also, in data set [1] (setting [4]), the AUC(0-inf) amounted to 20900 ng·h/mL, the Cmax amounted to 4310 ng/mL, the MRT inf was 3.39 h and the Tmax was found to be 2 h. Besides, the half-life in data set [1] (setting [4]) is 2.75 h.
In the case of `CC(C)n1nc(C#N)c2cc(-n3cc(C(=O)OCCCCO[N+](=O)[O-])cn3)ccc21` [Compound 38, [4-(nitrooxy)] butyl 1-(3-cyano-1-isopropyl-1H-indazol-5-yl)-1H-pyrazole-4-carboxylate], in data set [2] (setting [5]), the “serum uric acid level compared with the model group at the same time point” value is “significantly reduce”. In addition, in data set [2], the “Uric acid 0 h” value worked out at 51.7 ± 5.9 µmol/L, the “Uric acid 1 h” value turned out to be 67.5 ± 19.3 µmol/L, the “Uric acid 3 h” value was 69.0 ± 24.7 µmol/L and the “Uric acid 5 h” value is 51.7 ± 6.7 µmol/L.
As for `CC(C)n1nc(C#N)c2cc(-c3cc(C(=O)OCCCCO[N+](=O)[O-])ccn3)ccc21` [Compound 39, [4-(nitrooxy)] butyl 2-(3-cyano-1-isopropyl-1H-indazol-5-yl) isonicotinate], in data set [1] (setting [3]), the AUC(0-inf) amounted to 886 ng·h/mL, the Cmax was 714 ng/mL, the MRT inf worked out at 7.16 h and the Tmax is 0.083 h. The same compound had a half-life in data set [1] (setting [3]) of 9.92 h. In data set [1] (setting [4]), the total exposure AUC(0-inf) is 18300 ng·h/mL, the maximum concentration (Cmax) was 3900 ng/mL, the mean residence time MRT inf amounted to 3.9 h and the Tmax was determined as 0.5 h. In data set [1] (setting [4]), this compound gave a half-life of 3.03 h.
Regarding `CC(C)n1nc(C#N)c2cc(-n3cc(C(=O)Oc4cccc(CO[N+](=O)[O-])c4)cn3)ccc21` [Compound 41, [3-(nitrooxy)methyl]phenyl 1-(3-cyano-1-isopropyl-1H-indazol-5-yl)-1H-pyrazole-4-carboxylate], in data set [2] (3 and 5 h after modeling, P<0.01), the “serum uric acid level compared with the model group at the same time point” value is “significantly reduce”. In data set [2], the “Uric acid 0 h” value amounted to 50.6 ± 7.3 µmol/L, the “Uric acid 1 h” value was 74.1 ± 16.5 µmol/L, the “Uric acid 3 h” value worked out at 72.2 ± 20.2 µmol/L and the “Uric acid 5 h” value is 55.4 ± 14.9 µmol/L.
With `CC(C)n1nc(C#N)c2cc(-c3cc(C(=O)Oc4cccc(CO[N+](=O)[O-])c4)ccn3)ccc21` [Compound 42, [3-(nitrooxy)methyl]phenyl 2-(3-cyano-1-isopropyl-1H-indazol-5-yl) isonicotinate], in data set [1] (setting [3]), the AUC(0-inf) is 767 ng·h/mL, the maximum concentration (Cmax) came out at 2.82 ng/mL, the MRT inf is 3.37 h and the time of peak concentration (Tmax) is 0.083 h. In addition, in data set [1] (setting [3]), the half-life was 6.44 h. In addition, in data set [1] (setting [4]), the total exposure AUC(0-inf) was 8640 ng·h/mL, the Cmax came out at 1510 ng/mL, the MRT inf was found to be 4.12 h and the time of peak concentration (Tmax) stood at 1.58 h. The same compound had a half-life in data set [1] (setting [4]) of 2.91 h.
